Publication PMC9504587, “Cytotoxic Drimane-Type Sesquiterpenes from Co-Culture of the Marine-Derived Fungi Aspergillus carneus KMM 4638 and Beauveria felina (=Isaria felina) KMM 4639” (Marine Drugs, 2022)
≈ marks a conversion by molar mass, not a printed value. Where two headings read alike, the source gives them in different places.

Experiments:
[1] = tested on: human breast cancer MCF-7; experiment: MTT cytotoxicity assay, MCF-7 cells; type: cell-based
Protocol: (§1) PC-3, MCF-7, C6, and H9c2 cells were cultured in DMEM medium (Biolot, St. Petersburg, Russia) containing 10% fetal bovine serum (Biolot, St. Petersburg, Russia) and 1% penicillin/streptomycin (Biolot, St. Petersburg, Russia) at 37 °C in a humidified atmosphere with 5% (v/v) CO2. The Raji cells were cultured in RPMI-1640 medium (Biolot, St. Petersburg, Russia) containing 10% fetal bovine serum (Biolot, St. Petersburg, Russia) and 1% penicillin/streptomycin (Biolot, St. Petersburg, Russia) under the same conditions.
(§2) Initially, cells were incubated in culture flasks until subconfluent (~80%). For testing, the cells were seeded at concentrations of 5 × 10^3 cells/well (PC-3, MCF-7, Raji, and C6 cells) or 3 × 10^3 cells/well (H9c2 cells), and experiments were started after 24 h.
(§3) The in vitro cytotoxicity of individual substances was determined by the MTT method (3-(4,5-dimethylthiazol-2-yl)-2,5-diphenyltetrazolium bromide), according to the manufacturer’s instructions (Sigma-Aldrich, St. Louis, MO, USA).
(§4) Investigated compounds were dissolved in DMSO at a concentration of 10 mM.
(§5) The cells were treated with the investigated compounds for 24 h or 48 h, and MTT reagent was added to each well of the plate. The vehicle with DMSO at a concentration of 1% was used as a control. The absorbance of formed formazan was measured at λ = 570 nm using a Multiskan FC microplate photometer (Thermo Scientific, Waltham, MA, USA) and expressed in optical units (o.u.). The results are presented as % of viable cells relative to vehicle, and 50% inhibition concentration of cell viability (IC50) was calculated.

[2] = tested on: human hepatocarcinoma HepG2; set-up: method as in doi:10.25135/rnp.294.2109.2194; details: cited from earlier work
[3] = tested on: gastric cancer MKN-45 cells; set-up: method as in doi:10.25135/rnp.294.2109.2194; details: cited from earlier work
[4] = tested on: normal rat cardiomyocyte H9c2 cell line; experiment: MTT cytotoxicity assay, H9c2 cells; type: cell-based; details: 24 h incubation, mean ± SEM
Protocol: as §1, §2, §3, §4, §5

[5] = tested on: human prostate cancer PC-3; experiment: MTT cytotoxicity assay, PC-3 cells; type: cell-based; details: 24 h incubation, mean ± SEM
Protocol: as §1, §2, §3, §4, §5

rat glioblastoma C6 = experiment: MTT cytotoxicity assay, C6 cells; type: cell-based; details: 24 h incubation, mean ± SEM
Protocol: as §1, §2, §3, §4, §5

human lymphoma Raji = experiment: MTT cytotoxicity assay, Raji cells; type: cell-based; details: 24 h incubation, mean ± SEM
Protocol: as §1, §2, §3, §4, §5

[6] = tested on: H9c2, C6, PC-3, Raji and MCF-7 cells; experiment: MTT cytotoxicity, summary statements over several cell lines; type: cell-based; details: 24 h
Protocol: as §3, §4, §5

PTP1B = target: PTP1B; set-up: method as in earlier work; details: cell-free assay; cited from earlier work
MCF-7 cells [7] = experiment: Apoptosis profile by flow cytometry (Muse annexin V and dead cell kit); type: cell-based, human; details: 10 µM, 48 h
Protocol: After incubation, culture media were collected; then, cells were washed twice with cold PBS and incubated with trypsin-EDTA solution for 1 min. The cell suspension was washed twice by centrifugated at 250× g for 4 min with cold PBS and used for apoptosis detection by a Muse® annexin V and dead cell kit in accordance with manufacturer’s instructions (Luminex, Austin, TX, USA). Fluorescence was measured with a Muse® cell analyzer (Luminex, Austin, TX, USA), and data were processed by Muse 1.5 analysis software (Luminex, Austin, TX, USA). The proportion of apoptotic cells was expressed as a percentage.

SHP2 = target: SHP2; set-up: method as in earlier work; details: cell-free assay; cited from earlier work
MCF-7 cells [8] = experiment: Total caspase activity by flow cytometry (Muse multicaspase kit); type: cell-based, human; details: 10 µM, 48 h; control 4.7%
Protocol: The influence of the compounds on the percentage of live MCF-7 cells (caspase−/7-AAD−), live MCF-7 cells with caspase activity (caspase+/7-AAD−), dead MCF-7 cells with caspase activity […] MCF-7 cells (caspase−/7-AAD+) was measured by a Muse® multicaspase kit (Luminex, Austin, TX, USA). The kit utilizes a VAD-peptide derivatized with a fluorescent group called fluorescent-labeled inhibitor of caspases (FLICA). The peptide binds to activated caspases, resulting in a fluorescent signal proportional to the number of active caspases in the cell. Fluorescent dye 7-AAD was used as a dead cell marker in this assay.
After incubation, culture media were collected, and cells were washed twice with cold PBS and incubated in trypsin-EDTA solution for 1 min. The cell suspension was washed twice by centrifugation at 250× g for 4 min with cold PBS and then used for caspase activity detection by a Muse® multicaspase kit (caspases 1, 3, 4, 5, 6, 7, 8, and 9) in accordance with manufacturer’s instructions (Luminex, Austin, TX, USA). Fluorescence was measured with a Muse® cell analyzer (Luminex, Austin, TX, USA), and data were processed by Muse 1.5 analysis software (Luminex, Austin, TX, USA).

MCF-7 cells [9] = experiment: Cell cycle analysis by flow cytometry (propidium iodide); type: cell-based, human; details: 10 µM, 48 h
Protocol: After incubation, cells were trypsinized, harvested, washed with PBS, and fixed with ice-cold 70% ethanol in a dropwise manner prior to storage at −20 °C overnight. The cells were then washed with PBS, incubated with 200 μg/mL RNAse (PanReac, AppliChem, Darmstadt, Germany) and 20 μg/mL of propidium iodide (Sigma-Aldrich, St. Louis, MO, USA) for 30 min at 37 °C, and the DNA content was analyzed with a Muse® cell analyzer (Luminex, Austin, TX, USA). The data were processed by Muse 1.5 analysis software (Luminex, Austin, TX, USA). The proportion of cells in each phase of the cell cycle was expressed as a percentage.

[10] = tested on: murine leukemia P388 cells; set-up: method as in PMID 21628915; details: read-out: IC50, P388 cell viability; cited from earlier work
Edwardsiella tarda = tested on: Edwardsiella tarda; set-up: method as in PMID 32605151; details: cited from earlier work
[11] = tested on: Ceratobasidium cornigerum; set-up: method as in PMID 32605151; details: cited from earlier work
[12] = tested on: human histiocytic lymphoma U937 cell line; set-up: method as in PMID 27936301; details: cited from earlier work
[13] = Homo sapiens, MCF7, 24 h, 24 h incubation, mean ± SEM, read-out: IC50, MCF-7
[14] = 24 h incubation, mean ± SEM, read-out: IC50, MCF-7

CC(O)C(O)C=CC=CC(=O)OC1C=C(CO)C(O)(CO)C2(C)CCCC(C)(C)C12 (centres unmarked) [Compound 1, asperflavinoid A]
IC50 [1, 13]: 59 ± 4.4 µM | IC50 [2]: 84.4 µM | IC50 [3]: 63.2 µM | IC50 ([4]; Rattus norvegicus, H9c2, 24 h): 84.2 ± 3.3 µM | IC50 ([5]; Homo sapiens, PC-3, 24 h): 85.3 ± 2.9 µM | IC50 (rat glioblastoma C6; Rattus norvegicus, C6, 24 h): 102 ± 1.7 µM | IC50 (human lymphoma Raji; Homo sapiens, Raji, 24 h): > 100 µM

CC(O)C(O)C=CC=CC(=O)OC1C=C(CO)C(O)(CO)C2(C)CCCC(C)(C)C12 (centres unmarked) [Compound 2, asperflavinoid B]
IC50 [1, 14]: 54.1 ± 2.4 µM | IC50 [4]: 74.4 ± 4.4 µM | IC50 [5]: 75.2 ± 3.8 µM | IC50 (rat glioblastoma C6): > 100 µM | IC50 (human lymphoma Raji): > 100 µM

CC1(C)CCC[C@@]2(C)[C@H]1[C@H](OC(=O)/C=C/C=C/C=O)C=C1CO[C@@H](O)[C@@]12O [Compound 3, asperflavinoid C]
decrease in MCF-7 cell viability ([1]; 10 µM, 48 h): ~50% | IC50 [1, 13]: 33.8 ± 2.2 µM | IC50 ([1]; Homo sapiens, MCF7, 48 h, 48 h incubation, concentrations up to 10 µM, read-out: IC50, MCF-7 cell viability, prolonged incubation): 10 µM | IC50 ([4]; Rattus norvegicus, H9c2, 24 h): 55.6 ± 2.6 µM | IC50 ([6]; range over both compounds and three cell lines): 54.3 to 88.1 µM | IC50, PTP1B enzyme activity (PTP1B): 2.8 µg/mL (≈ 7.44 µM) | amount of apoptotic cells (early and late) (MCF-7 cells [7]; control 1.7%): 15.0% | amount of living cells (MCF-7 cells [7]; control 98.6%): 84.9% | IC50, SHP2 enzyme activity (SHP2): 3.0 µg/mL (≈ 7.97 µM) | percentage of cells exhibiting caspase activity (living and 7-AAD-labeled) (MCF-7 cells [8]): 12.3% | subG0 cells (MCF-7 cells [9]; control 5.4%): 34.6% | decrease in the percentage of cells in the S phase (MCF-7 cells [9]; relative to control): 54.5% | increase of the percentage of cells in the G2/M phase (MCF-7 cells [9]; relative to control): 25.2% | reduction of the percentage of cells in the G0/G1 phase (MCF-7 cells [9]; relative to control): 30.9% | increase of the subG0 population of cells (MCF-7 cells [9]; versus control): 6.4 times | IC50 ([5]; Homo sapiens, PC-3, 24 h): 50.8 ± 1.6 µM | IC50 (rat glioblastoma C6; Rattus norvegicus, C6, 24 h): 56 ± 1.2 µM | IC50 (human lymphoma Raji; Homo sapiens, Raji, 24 h): 82.3 ± 2.9 µM

CC(O)C(O)C=CC=CC(=O)OC1C=C2COC(O)C2(O)C2(C)CCCC(C)(C)C12 (centres unmarked) [Compound 4, asperflavinoid D]
IC50 [1, 13]: 75 ± 6.2 µM | IC50 ([4]; Rattus norvegicus, H9c2, 24 h): 59.3 ± 1.7 µM | IC50 ([5]; Homo sapiens, PC-3, 24 h): 57.4 ± 2.4 µM | IC50 (rat glioblastoma C6; Rattus norvegicus, C6, 24 h): > 100 µM | IC50 (human lymphoma Raji; Homo sapiens, Raji, 24 h): 85.7 ± 6 µM

CC(O)C(O)C=CC=CC(=O)OC1C=C2COC(O)C2(O)C2(C)CCCC(C)(C)C12 (centres unmarked) [Compound 5, asperflavinoid E]
IC50 [1, 14]: 80.6 ± 3.5 µM | IC50 [4]: 63.9 ± 1.6 µM | IC50 [5]: 59.1 ± 0.8 µM | IC50 (rat glioblastoma C6): > 100 µM | IC50 (human lymphoma Raji): 94.4 ± 2.3 µM

CC1(C)CCC[C@@]2(C)[C@H]1[C@H](O)C=C1COC(=O)[C@@]12O [Compound 8, strobilactone A]
IC50 [1, 13]: > 100 µM | IC50 ([4]; Rattus norvegicus, H9c2, 24 h): > 100 µM | influence on the viability of the tested cells ([6]; up to a concentration of 100 µM): did not influence the viability | IC50 ([5]; Homo sapiens, PC-3, 24 h): > 100 µM | IC50 (rat glioblastoma C6; Rattus norvegicus, C6, 24 h): > 100 µM | IC50 (human lymphoma Raji; Homo sapiens, Raji, 24 h): > 100 µM

CC(O)C(=O)/C=C/C=C/C(=O)O[C@@H]1C=C2COC(=O)[C@]2(O)[C@@]2(C)CCCC(C)(C)[C@H]12 (some centres unmarked) [Compound 10, (6-strobilactone A) ester of (E,E)-6-carbonyl-7-hydroxy-2,4-octadienoic acid]
IC50 [1, 13]: 55.1 ± 1.4 µM | IC50 ([4]; Rattus norvegicus, H9c2, 24 h): 61.9 ± 0.5 µM | IC50 [10]: 8.7 µM | IC50 ([5]; Homo sapiens, PC-3, 24 h): 57.8 ± 1.1 µM | IC50 (rat glioblastoma C6; Rattus norvegicus, C6, 24 h): > 100 µM | IC50 (human lymphoma Raji; Homo sapiens, Raji, 24 h): 95.3 ± 0.8 µM

CC(O)C(O)/C=C/C=C/C(=O)O[C@@H]1C=C2COC(=O)[C@]2(O)[C@@]2(C)CCCC(C)(C)[C@H]12 (some centres unmarked) [Compound 11, (6-strobilactone A) esters of (E,E)-6,7-dihydroxy-2,4-octadienoic acid]
IC50 [1, 13]: 83.5 ± 1.7 µM | IC50 ([4]; Rattus norvegicus, H9c2, 24 h): > 100 µM | IC50 ([5]; Homo sapiens, PC-3, 24 h): > 100 µM | IC50 (rat glioblastoma C6; Rattus norvegicus, C6, 24 h): > 100 µM | IC50 (human lymphoma Raji; Homo sapiens, Raji, 24 h): 96.9 ± 1.6 µM

CC(O)C(O)/C=C/C=C/C(=O)O[C@@H]1C=C2COC(=O)[C@]2(O)[C@@]2(C)CCCC(C)(C)[C@H]12 (some centres unmarked) [Compound 12, (6-strobilactone A) esters of (E,E)-6,7-dihydroxy-2,4-octadienoic acid]
IC50 [1, 14]: 81.7 ± 0.9 µM | IC50 [4]: > 100 µM | IC50 [5]: > 100 µM | IC50 (rat glioblastoma C6): > 100 µM | IC50 (human lymphoma Raji): 97.5 ± 0.9 µM

C=C(C)[C@H]1[C@H](OC(C)=O)C[C@H](C)[C@@]12CC=C(C)[C@@H](OC(=O)CCCCCCCC=CCC=CCCCCC)C2 [chermebilaene A]
MIC, Edwardsiella tarda (Edwardsiella tarda): 0.25 µg/mL (≈ 0.462 µM) | MIC, Ceratobasidium cornigerum [11]: 0.5 µg/mL (≈ 0.925 µM)

aluminumneohydroxyaspergillin
IC50 [12]: 4.2 µM
